According to patent publication US20160158317A1, “Antimicrobial Peptide Variants and Polynucleotides Encoding Same” (Adenium Biotech A/S, priority 2010, published 2016):
Several values for one entry are separate records, joined by “and”; a condition that tells them apart may be missing. Equal entries are not always repeated. Marks after values point to notes of the source that are not given here.

System: E. coli AID#172
Assay: Neutropenic murine peritonitis/sepsis model, dose-response and estimation of ED50 (Example 2)
Assay type: in vivo, Escherichia coli
Design: key to Clinical score T = 0 hour / Clinical score T = 5 hours: Score 0: Healthy.; Score 1: Minor clinical signs of infection and inflammation e.g. observations of minor signs of distress or changed activity.; Score 2: Clear signs of infection like, social withdrawal, lack of curiosity, changed body position, piloerection, or changes in pattern of movement.; Score 3: Severe signs of infection like stiff movements, lack of curiosity, changed body position, piloerection, pain, or changes in pattern of movement.; Score 4: Severe pain and the mouse was sacrificed immediately to minimize the suffering of the animal.; Score 5: The mouse was dead
Method: The purpose of this study was to investigate the dose-response relationship following intravenous (i.v.) administration of a single dose of NZ17074 ranging from 0.16-12 mg/kg. The effect was tested against E. coli AID#172 in the neutropenic peritonitis model. Treatment with 40 mg/kg meropenem was included as a positive control group. The colony counts in blood and peritoneal fluid were determined at 5 hours after treatment.
The murine peritonitis/sepsis model is a well-recognized model for studies of antimicrobial activity as described by N. Frimodt-Møller and J. D. Knudsen in Handbook of Animal Models of Infection (1999), ed. by O. Zak & M. A. Sande, Academic Press, San Diego, US.
• 30 outbred, NMRI female mice, 25-30 grams (Harlan Scandinavia) • E. coli AID#172 from Statens Serum Institute, Copenhagen, Denmark. Clinical isolate from a human wound from 2003. Multiresistant (Ampicillin, Ceftazidime, Aztreonam, Gentamicin, Ciprofloxacin) • NZ17074 in Ringer Acetate, pH 6: 1.2 mg/ml, 6.0 ml. The solution was stored at 4° C. until use. Analyses of the dose formulations used were performed after completion of the in-life phase of the study and gave the following results:
The mice were rendered neutropenic by injecting 0.5 ml cyclophosphamide solution intraperitoneally 4 days (200 mg/kg) and 1 day (100 mg/kg) prior to inoculation.
Fresh overnight E. coli AID#172 colonies from a 5% Horse Blood Agar plate were suspended and diluted in sterile saline to approximately 2×10^6 CFU/ml. One hour before start of treatment (time −1 hr) mice were inoculated intraperitoneally with 0.5 ml of the E. coli suspension in the lateral lower quadrant of the abdomen. Approximately ½-1 hour after treatment, mice were treated orally with 45 microliters neurophen (20 mg ibuprofen/ml corresponding to 30 mg/kg) as a pain relief.
The mice were treated i.v. in the lateral tail vein over approximately 30 seconds with 10 ml/kg with a single dose of NZ17074, meropenem or vehicle at time 0 hour (see Table 1). The dosing was based on a mean weight of 30 g. Mice that weighed 28-32 g received 0.30 ml solution. Mice that weighed 27-28 g received 0.25 ml solution and mice that weighed 32.1-36 g received 0.35 ml solution.
The mice were observed during the study and scored 0-5 based on their behaviour and clinical signs. • Score 0: Healthy. • Score 1: Minor clinical signs of infection and inflammation e.g. observations of minor signs of distress or changed activity. • Score 2: Clear signs of infection like, social withdrawal, lack of curiosity, changed body position, piloerection, or changes in pattern of movement. • Score 3: Severe signs of infection like stiff movements, lack of curiosity, changed body position, piloerection, pain, or changes in pattern of movement. • Score 4: Severe pain and the mouse was sacrificed immediately to minimize the suffering of the animal. • Score 5: The mouse was dead.
Colony counts were determined from blood and peritoneal fluid at 0 and 5 hours. The mice were anaesthetized with CO2+O2 and blood was collected from axillary cutdown in 1.5 ml EDTA coated eppendorf tubes. The mice were sacrificed immediately after blood sampling and a total of 2 ml sterile saline was injected i.p. and the abdomen gently massaged before it was opened and fluid sampled with a pipette. Each sample was then 10 fold diluted in saline and 20-microliter spots were applied on blue agar plates. All agar plates were incubated 18-22 hours at 35° C. in ambient air.
The colony counts were performed at the start of treatment and 5 hours after treatment. The CFU numbers are log10 transformed before performing calculations.

## C[C@@H](O)[C@H]1C(=O)N2C(C(=O)O)=C(S[C@@H]3CN[C@H](C(=O)N(C)C)C3)[C@H](C)[C@H]12 [meropenem]
40 mg/kg i.v., 5 hours, blood p<0.05, peritoneal fluid p<0.01
  CFU levels in blood and peritoneal fluid compared to vehicle: significant reduction
Meropenem 40 mg/kg single dose group, score at start of treatment, individual mice
  Clinical score T = 0 hour: 1
Meropenem 40 mg/kg single dose, blood, T = 5, group mean, p < 0.05 vs vehicle
  log10 CFU Mean Blood: 2.38* log10 CFU/ml
Meropenem 40 mg/kg single dose, blood, T = 5, individual mice
  log10 CFU Blood: 2.48 log10 CFU/ml and 1.70 log10 CFU/ml and 2.95 log10 CFU/ml
Meropenem 40 mg/kg single dose, individual mice
  Clinical score T = 5 hours: 1 (2×) and 0
Meropenem 40 mg/kg single dose, peritoneal fluid, T = 5, group mean, p < 0.01 vs vehicle
  log10 CFU mean PF: 2.64** log10 CFU/ml
Meropenem 40 mg/kg single dose, peritoneal fluid, T = 5, individual mice
  log10 CFU PF: 3.92 log10 CFU/ml and 1.70 log10 CFU/ml and 2.30 log10 CFU/ml
